For test [1], the system named is Beet Armyworm (Spodoptera exigua, LAPHEG). The test is described as follows: Bioassay on Beet Armyworm (BAW), 128-well diet tray assay. It is filed as in vivo. Conditions: Species BAW (Beet Armyworm), read-out: BAW (Biological Results, rating). The method, then: (§1) Certain molecules disclosed in this document were tested against BAW and CL using procedures described in the following examples. In the reporting of the results, the “BAW & CL Rating Table” was used (See Table Section).
Bioassays on BAW were conducted using a 128-well diet tray assay. One to five second instar BAW larvae were placed in each well (3 mL) of the diet tray that had been previously filled with approximately 1.5 mL of artificial diet to which 50 μg/cm^2 of the test molecule (dissolved in 50 μL of 90:10 acetone-water mixture) had been applied (to each of eight wells) and then allowed to dry. Trays were covered with a clear self-adhesive cover, vented to allow gas exchange, and held at 25° C., 14:10 light-dark for five to seven days. Percent mortality was recorded for the larvae in each well; activity in the eight wells was then averaged. The results are indicated in the table entitled “Table ABC: Biological Results” (See Table Section).

The test system of test [2] is Cabbage Looper (Trichoplusia ni, TRIPNI). Put plainly: Bioassay on Cabbage Looper (CL), 128-well diet tray assay. It is filed as in vivo. To be noted: Trichoplusia ni; Species CL (Cabbage Looper); read-out: CL (Biological Results, rating). As for the experimental part: as §1
Bioassays on CL were conducted using a 128-well diet tray assay. one to five second instar CL larvae were placed in each well (3 mL) of the diet tray that had been previously filled with 1 mL of artificial diet to which 50 μg/cm^2 of the test molecule (dissolved in 50 μL of 90:10 acetone-water mixture) had been applied (to each of eight wells) and then allowed to dry. Trays were covered with a clear self-adhesive cover, vented to allow gas exchange, and held at 25° C., 14:10 light-dark for five to seven days. Percent mortality was recorded for the larvae in each well; activity in the eight wells was then averaged. The results are indicated in the table entitled “Table ABC: Biological Results” (See Table Section).

In the case of `N#Cc1ccc(NC(=O)c2cc(NC(=O)[C@H]3[C@H](c4cc(Cl)c(Cl)c(Cl)c4)C3(Cl)Cl)ccc2Cl)c(F)c1` (relative stereo) [F104, trans-2-Chloro-N-(4-cyano-2-fluorophenyl)-5-(2,2-dichloro-3-(3,4,5-trichlorophenyl)cyclopropane-1-carboxamido)benzamide], the pest or weed control at 50 µg/cm2 in test [1] and in test [2] was 50 to 100% in each case.
For the compound `CN(C(=O)c1cc(NC(=O)[C@H]2[C@H](c3cc(Cl)c(Cl)c(Cl)c3)C2(Cl)Cl)ccc1F)c1ccc(C#N)cc1F` (relative stereo) [F105, trans-N-(4-Cyano-2-fluorophenyl)-5-(2,2-dichloro-3-(3,4,5-trichlorophenyl)cyclopropane-1-carboxamido)-2-fluoro-N-methylbenzamide], the pest or weed control at 50 µg/cm2 in test [1] and in test [2] was 50 to 100% throughout.
Regarding `CN(C(=O)c1cc(NC(=O)[C@H]2[C@H](c3cc(Cl)cc(Cl)c3)C2(Cl)Cl)ccc1Cl)c1ccc(C#N)cc1F` (relative stereo) [F106, trans-2-Chloro-N-(4-cyano-2-fluorophenyl)-5-(2,2-dichloro-3-(3,5-dichlorophenyl)cyclopropane-1-carboxamido)-N-methylbenzamide], the pest or weed control at 50 µg/cm2 in test [1] and in test [2] was 50 to 100% each time.
On to `CN(C(=O)c1cc(NC(=O)[C@H]2[C@H](c3ccc(Cl)c(Cl)c3)C2(Cl)Cl)ccc1Cl)c1ccc(C#N)cc1F` (relative stereo) [F107, trans-2-Chloro-N-(4-cyano-2-fluorophenyl)-5-(2,2-dichloro-3-(3,4-dichlorophenyl)cyclopropane-1-carboxamido)-N-methylbenzamide], for which the pest or weed control at 50 µg/cm2 in test [1] and in test [2] was 50 to 100% each time.
In the case of `CN(C(=O)c1cc(NC(=O)[C@H]2[C@H](c3cc(Cl)c(Cl)c(Cl)c3)C2(Cl)Cl)ccc1Cl)c1ccc(C#N)cc1F` (relative stereo) [F108, trans-2-Chloro-N-(4-cyano-2-fluorophenyl)-5-(2,2-dichloro-3-(3,4,5-trichlorophenyl)cyclopropane-1-carboxamido)-N-methylbenzamide], the pest or weed control at 50 µg/cm2 in test [1] and in test [2] was 50 to 100% each time.
Regarding `O=C(Nc1ccc(F)cc1)c1cc(NC(=O)[C@H]2[C@H](c3ccccc3)C2(Cl)Cl)ccc1Cl` (relative stereo) [F109, trans-2-Chloro-5-(2,2-dichloro-3-phenylcyclopropane-1-carboxamido)-N-(4-fluorophenyl)benzamide], the pest or weed control at 50 µg/cm2 in test [1] and in test [2] was 50 to 100% throughout.
Take `CN(C(=O)c1cc(NC(=O)[C@H]2[C@H](c3ccccc3)C2(Cl)Cl)ccc1Cl)c1ccc(F)cc1` (relative stereo) [F110, trans-2-Chloro-5-(2,2-dichloro-3-phenylcyclopropane-1-carboxamido)-N-(4-fluorophenyl)-N-methylbenzamide]: the pest or weed control at 50 µg/cm2 in test [1] and in test [2] was 50 to 100% throughout.
As for `O=C(Nc1c(F)cccc1F)c1cc(NC(=O)[C@H]2[C@H](c3ccccc3)C2(Cl)Cl)ccc1Cl` (relative stereo) [F111, trans-2-Chloro-5-(2,2-dichloro-3-phenylcyclopropane-1-carboxamido)-N-(2,6-difluorophenyl)benzamide], the pest or weed control at 50 µg/cm2 in test [1] and in test [2] was 50 to 100% in each case.
As for `CN(C(=S)c1cc(NC(=O)[C@H]2[C@H](c3cc(Cl)cc(Cl)c3)C2(Cl)Cl)ccc1Cl)c1ccc(F)cc1` (relative stereo) [F112, trans-2,2-Dichloro-N-(4-chloro-3-((4-fluorophenyl)(methyl)carbamothioyl)phenyl)-3-(3,5-dichlorophenyl)cyclopropane-1-carboxamide], the pest or weed control at 50 µg/cm2 in test [1] and in test [2] was 50 to 100% in each case.
`O=C(Nc1ccc(Cl)c(C(=S)Nc2ccc(F)cc2)c1)[C@H]1[C@H](c2cc(Cl)cc(Cl)c2)C1(Cl)Cl` (relative stereo) [F113, trans-2,2-Dichloro-N-(4-chloro-3-((4-fluorophenyl)carbamothioyl)phenyl)-3-(3,5-dichlorophenyl)cyclopropane-1-carboxamide]: the pest or weed control at 50 µg/cm2 in test [1] and in test [2] was 50 to 100% each time.
Turning to `CSc1ccc(NC(=O)[C@H]2[C@H](c3cc(Cl)cc(Cl)c3)C2(Cl)Cl)cc1C(=O)Nc1ccc(F)cc1` (relative stereo) [F115, trans-5-(2,2-Dichloro-3-(3,5-dichlorophenyl)cyclopropane-1-carboxamido)-N-(4-fluorophenyl)-2-(methylthio)benzamide], the pest or weed control at 50 µg/cm2 in test [1] and in test [2] was 50 to 100% in each case.
`Cc1c(Cl)cc([C@H]2[C@H](C(=O)Nc3ccc(Cl)c(C(=O)Nc4ccc(F)cc4)c3)C2(Cl)Cl)cc1Cl` (relative stereo) [F119, trans-2-Chloro-5-(2,2-dichloro-3-(3,5-dichloro-4-methylphenyl)cyclopropane-1-carboxamido)-N-(4-fluorophenyl)benzamide]: the pest or weed control at 50 µg/cm2 in test [1] and in test [2] was 50 to 100% throughout.
As for `Cc1c(Cl)cc([C@H]2[C@H](C(=O)Nc3ccc(Cl)c(C(=O)N(C)c4ccc(F)cc4)c3)C2(Cl)Cl)cc1Cl` (relative stereo) [F120, trans-2-Chloro-5-(2,2-dichloro-3-(3,5-dichloro-4-methylphenyl)cyclopropane-1-carboxamido)-N-(4-fluorophenyl)-N-methylbenzamide], the pest or weed control at 50 µg/cm2 in test [1] and in test [2] was 50 to 100% each time.
Turning to `Cc1c(Cl)cc([C@H]2[C@H](C(=O)Nc3ccc(Cl)c(C(=O)Nc4c(F)cccc4F)c3)C2(Cl)Cl)cc1Cl` (relative stereo) [F121, trans-2-Chloro-5-(2,2-dichloro-3-(3,5-dichloro-4-methylphenyl)cyclopropane-1-carboxamido)-N-(2,6-difluorophenyl)benzamide], the pest or weed control at 50 µg/cm2 in test [1] and in test [2] was 50 to 100% each time.
Consider `Cc1cc([C@H]2[C@H](C(=O)Nc3ccc(Cl)c(C(=O)Nc4c(F)cccc4F)c3)C2(Cl)Cl)cc(Cl)c1Cl` (relative stereo) [F125, trans-2-Chloro-5-(2,2-dichloro-3-(3,4-dichloro-5-methylphenyl)cyclopropane-1-carboxamido)-N-(2,6-difluorophenyl)benzamide], for which the pest or weed control at 50 µg/cm2 in test [1] and in test [2] was 50 to 100% throughout.
In the case of `O=C(Nc1ccc(F)cc1)c1cccc(NC(=O)[C@H]2[C@H](c3cc(Cl)cc(Cl)c3)C2(Cl)Cl)n1` (relative stereo) [F133, trans-6-(2,2-Dichloro-3-(3,5-dichlorophenyl)cyclopropane-1-carboxamido)-N-(4-fluorophenyl)picolinamide], the pest or weed control at 50 µg/cm2 in test [1] and in test [2] was 50 to 100% in each case.
Consider `Cc1ccc(C(=O)Nc2ccc(F)cc2)cc1NC(=O)[C@H]1[C@H](c2cc(Cl)cc(Cl)c2)C1(Cl)Cl` (relative stereo) [F134, trans-3-(2,2-Dichloro-3-(3,5-dichlorophenyl)cyclopropane-1-carboxamido)-N-(4-fluorophenyl)-4-methylbenzamide], for which the pest or weed control at 50 µg/cm2 in test [1] and in test [2] was 50 to 100% in each case.

These data come from patent publication US10219516B2, “Molecules having pesticidal utility, and intermediates, compositions, and processes, related thereto” (priority 2015, dated 2019).
